Test results from patent US6638762B1, “Tissue-vectors specific replication and gene expression” (priority 1994, dated 2003).

Columns and labels:
Av5E1aTK01i [1] = test: GCV inhibition of Av5E1aTk01i replication in vivo, immunohistochemistry of subcutaneous A549 tumors; design: species or system nude mice; conditions: A549 tumors injected with 1×10^9 pfu Av5E1aTK01i; IP GCV 75 mg/kg once a day for 5 days
Experimental: (§1) FIG. 7. GCV Inhibition of Av5E1aTk01i Replication In Vivo. Subcutaneous tumors were formed by injecting 1×10^7 A549 cells into the subcutaneous space of the right flank of nude mice. After tumors formed 1×10^9 pfu of Add1327Tk01i was injected into several animals containing tumors. After 5 days, half of the animals received 5 days of IP GCV treatment at 75 mg/kg once a day. At the end of this time frame all animals were sacrificed. Immunohistochemistry was performed on all samples for HSV-TK expression and hexon expression, the latter which is only expressed when the vector is replicating.
as §1, with “Subcutaneous” for “FIG. 7. GCV Inhibition of Av5E1aTk01i Replication In Vivo. Subcutaneous”, “tumors formed,” for “tumors formed”, “of Av5E1aTK01i” for “of Add1327Tk01i”, “5 days” for “5 days,”, “half” for “half of”

Add1327 = test: GCV inhibition of vector replication in vitro, viral titer by TCID50 on 293 cells; type: cell-based; conditions: A549 cells transduced with Add1327; 10 μM GCV for 5 days; repeated three times
Experimental: (§2) FIG. 6. GCV Inhibition of Av5E1aTk01i Replication In Vitro. A549 cells were transduced with either Add1327 or Add1327Tk01i. Cells were then treated with 10 uM GCV for 5 days. Following the 5 day incubation, cells were harvested, washed in HBSS, and then freeze/thawed to prepare a crude viral lysate. Titers were then performed by standard TCID50 assays on 293 cells to determine viral titer. The experiment was repeated three times.
(§3) HSV-TK was placed into the E3 region of Add1327 to form Av5E1aTK01i. A549 cells were transduced with either Add1327 or Av5E1aTK01i. Cells were then treated with 10 μM GCV for 5 days. Following the 5 day incubation cells were harvested, washed in HBSS, and then freeze/thawed to prepare a crude viral lysate. Titers were then performed by standard TCID^50 assays on 293 cells to determine viral titer. The experiment was repeated three times.

Av5E1aTK01i [2] = test: as above; type: cell-based; conditions: A549 cells transduced with Av5E1aTK01i; 10 μM GCV for 5 days; repeated three times
Experimental: as §2, §3

`Nc1nc(O)c2ncn(COC(CO)CO)c2n1` [GCV, ganciclovir] was tested, and the “hexon expression (only expressed when the vector is replicating), immunohistochemistry” value (Av5E1aTK01i [1]) was “severely diminished”, the “effect on viral titer of an adenovirus not carrying the HSV-TK gene” value (Add1327) was “no effect” and the “drop in titer of a vector carrying the HSV-TK gene” value (Av5E1aTK01i [2]) was “greater than 4 order of magnitude”.
